For the data set, the system named is C. elegans nematodes at the L1 stage. Put plainly: Nematicide efficacy of CED-4 peptides, 96-well incubation of C. elegans L1, viability by probe touch. Format: in vivo, Caenorhabditis elegans. The following applies: for Percentage % Alive / Percentage % Dead (mortality rate) / # of nematodes Alive in all combined successful experiments / # of nematodes Dead in all combined successful experiments: three days, about 37° C. The protocol:
(§1) Assays were performed using 96-well plates. C. elegans nematodes at the L1 stage (refer to FIG. 1) were incubated in each of the 96 wells for three days at about 37° C. at about 0.8 mg/ml peptide concentration for each tested CED-4 peptide. Each of the selected CED-4 peptides were diluted in distilled water to 0.8 mg/ml peptide concentration. Nematodes—numbering between two nematodes and four nematodes—averaging about three nematodes were incubated in 100 μl of CED-4 peptide solution at about 0.8 mg/ml concentration in each well. After a three-day incubation period, the exposed C. elegans nematodes were checked for viability under a dissecting microscope.
The percentage of dead C. elegans from all of the successful experiments is also referred to as the “mortality rate.”
Each separate well containing nematodes was considered an independent trial experiment. A well in which all of the incubated nematodes were either clearly alive or clearly dead at the end of the incubation period was recorded as one successful experiment. A well in which some or all of the incubated nematodes could not clearly be determined as alive or dead at the end of the incubation period was recorded as one unsuccessful experiment. At a concentration of about 0.8 mg/ml, nine trial experiments were carried out for each of the twelve designed CED-4 peptides.
as §1, with “0.4” for “0.8”
Each separate well containing nematodes was considered an independent trial experiment. A well in which all of the incubated nematodes were either clearly alive or clearly dead at the end of the incubation period was recorded as one successful experiment. A well in which some or all of the incubated nematodes could not clearly be determined as alive or dead at the end of the incubation period was recorded as one unsuccessful experiment. At a concentration of about 0.4 mg/ml, eight trial experiments were carried out for each of the twelve designed CED-4 peptides.

Setting [1] is: peptide concentration of 0.4 mg/ml.
The mark [2] stands for this setting: peptide concentration of 0.8 mg/ml.

Take H-DLLRPVVIAPQFSRQ-OH [Peptide 2]: for the setting “0.4 mg/ml”, the “Percentage % Alive” value is given as 92.3% and the “Percentage % Dead (mortality rate)” value stood at 7.7%. Moreover, for the setting “0.8 mg/ml”, the “Percentage % Alive” value is on record as 0% and the “Percentage % Dead (mortality rate)” value turned out to be 100%.

On to H-TSVVLKRMICNALI-OH [Peptide 6], for which, where the note is “0.4 mg/ml”, the “# of nematodes Alive in all combined successful experiments” value (shortened to “# of nematodes Alive”) is on record as 9, the “# of nematodes Dead in all combined successful experiments” value (“# of nematodes Dead” below) was found to be 0, the “Percentage % Alive” value is given as 100% and the “Percentage % Dead (mortality rate)” value was found to be 0%. For the same substance, for the setting “0.8 mg/ml”, the “# of nematodes Alive” value worked out at 9, the “# of nematodes Dead” value is 0, the “Percentage % Alive” value is 100% and the “Percentage % Dead (mortality rate)” value was 0%. Under setting [1], the “nematicide efficacy” value was “not associated with a high number of dead nematodes”. Besides, the “nematicide efficacy” value under setting [2] is “not associated with a high number of dead nematodes”.

Regarding H-LVGVECITPYSYKSLAMALQR-OH [Peptide 9], under “0.4 mg/ml”, the “# of nematodes Alive” value stood at 18, the “# of nematodes Dead” value worked out at 0, the “Percentage % Alive” value is on record as 100% and the “Percentage % Dead (mortality rate)” value was 0%. Moreover, for the setting “0.8 mg/ml”, the “# of nematodes Alive” value is 8, the “# of nematodes Dead” value was 0, the “Percentage % Alive” value turned out to be 100% and the “Percentage % Dead (mortality rate)” value amounted to 0%. Also, the “nematicide efficacy” value under setting [1] is “not associated with a high number of dead nematodes”. Besides, the “nematicide efficacy” value under setting [2] was “not associated with a high number of dead nematodes”.

As to H-TCYIREYHVDRVI-OH [Peptide 4], the “Percentage % Alive” value is recorded as 64.28% (0.4 mg/ml) and 50% (0.8 mg/ml).

With “bovine serum albumin [BSA, reference compound]”, for the setting “0.4 mg/ml”, the “# of nematodes Alive” value is 21, the “# of nematodes Dead” value is listed as 0 and the “Percentage % Alive” value was found to be 100%. Besides, where the note is “0.8 mg/ml”, the “# of nematodes Alive” value is 26, the “# of nematodes Dead” value stood at 0 and the “Percentage % Alive” value came to 100%.

Consider H-QSHLADFLEDYIDFAINE-OH [Peptide 1], for which, for the setting “0.4 mg/ml”, the “# of nematodes Alive” value is 14, the “# of nematodes Dead” value worked out at 0, the “Percentage % Alive” value is recorded as 100% and the “Percentage % Dead (mortality rate)” value is 0%. Besides, the “nematicide efficacy” value under setting [1] is “not associated with a high number of dead nematodes”. Under setting [2], the “nematicide efficacy” value is reported as “not associated with a high number of dead nematodes”.

H-FPKFMQLHQKFY-OH [Peptide 12]: the “Percentage % Alive” value (0.4 mg/ml) turned out to be 33.3%. Under “0.8 mg/ml”, the “# of nematodes Alive” value came to 0 and the “Percentage % Alive” value was determined as 0%.

Take H-RQMLDRKLLLGNVPKQMTC-OH [Peptide 3]: where the note is “0.4 mg/ml”, the “Percentage % Alive” value is recorded as 40% and the “Percentage % Dead (mortality rate)” value is listed as 60%. Also, where the note is “0.8 mg/ml”, the “# of nematodes Dead” value turned out to be 20, the “Percentage % Alive” value came to 0% and the “Percentage % Dead (mortality rate)” value is recorded as 100%.

For the substance H-VDAQTIANGISILEQRL-OH [Peptide 11], under “0.4 mg/ml”, the “# of nematodes Alive” value came to 22, the “# of nematodes Dead” value came to 0, the “Percentage % Alive” value is reported as 100% and the “Percentage % Dead (mortality rate)” value turned out to be 0%. Further, for the setting “0.8 mg/ml”, the “Percentage % Alive” value is 70% and the “Percentage % Dead (mortality rate)” value worked out at 30%. Also, under setting [1], the “nematicide efficacy” value is “not associated with a high number of dead nematodes”.

Turning to H-DVEISNAASQTCEFIEVTSLE-OH [Peptide 7], for the setting “0.4 mg/ml”, the “# of nematodes Alive” value turned out to be 19, the “# of nematodes Dead” value was determined as 0, the “Percentage % Alive” value is 100% and the “Percentage % Dead (mortality rate)” value is recorded as 0%. Also, where the note is “0.8 mg/ml”, the “# of nematodes Alive” value came to 18, the “# of nematodes Dead” value is 0, the “Percentage % Alive” value stood at 100% and the “Percentage % Dead (mortality rate)” value is reported as 0%. Further, the “nematicide efficacy” value under setting [1] is on record as “not associated with a high number of dead nematodes”. For the same substance, the “nematicide efficacy” value under setting [2] was “not associated with a high number of dead nematodes”.

Turning to “H-MMFFKSCEPKTFEKMAQLNNKLESR-OH [Peptide 8]”, where the note is “0.4 mg/ml”, the “# of nematodes Alive” value turned out to be 10, the “Percentage % Alive” value was found to be 90.90% and the “Percentage % Dead (mortality rate)” value is listed as 9.09%. Moreover, for the setting “0.8 mg/ml”, the “# of nematodes Alive” value is given as 2, the “# of nematodes Dead” value was found to be 0, the “Percentage % Alive” value worked out at 100% and the “Percentage % Dead (mortality rate)” value is on record as 0%. Moreover, the “nematicide efficacy” value under setting [2] is “not associated with a high number of dead nematodes”.

With H-ALLSGKRMPVLTFKI-OH [Peptide 10], the “Percentage % Alive” value is listed as 30% (0.4 mg/ml) and 66.7% (0.8 mg/ml). For the same substance, the “Percentage % Dead (mortality rate)” value is reported as 70% (0.4 mg/ml) and 33.3% (0.8 mg/ml).

Consider “NH3—ILLMLKSEDDLLNF-COOH (H-ILLMLKSEDDLLNF-OH) [Peptide 5, ID No. 1]”, for which the “nematicide efficacy” value by setting is: under setting [1], “not associated with a high number of dead nematodes”; under setting [2], “not associated with a high number of dead nematodes”.

Source of the values: patent US9125413B1, “Nematicide composition comprising CED-4 peptide” (California State University Fresno, priority 2014, dated 2015).
